Source: ChEMBL document CHEMBL3045480, “Goat brain enkephalin degrading enzyme: interaction with analgesic and antihypertensive drugs” (Med Chem Res, 2011)

Target: T1, Dipeptidyl peptidase 3 (Bos mutus) (UniProt L8I2E6)
T1 sequence (whole entry): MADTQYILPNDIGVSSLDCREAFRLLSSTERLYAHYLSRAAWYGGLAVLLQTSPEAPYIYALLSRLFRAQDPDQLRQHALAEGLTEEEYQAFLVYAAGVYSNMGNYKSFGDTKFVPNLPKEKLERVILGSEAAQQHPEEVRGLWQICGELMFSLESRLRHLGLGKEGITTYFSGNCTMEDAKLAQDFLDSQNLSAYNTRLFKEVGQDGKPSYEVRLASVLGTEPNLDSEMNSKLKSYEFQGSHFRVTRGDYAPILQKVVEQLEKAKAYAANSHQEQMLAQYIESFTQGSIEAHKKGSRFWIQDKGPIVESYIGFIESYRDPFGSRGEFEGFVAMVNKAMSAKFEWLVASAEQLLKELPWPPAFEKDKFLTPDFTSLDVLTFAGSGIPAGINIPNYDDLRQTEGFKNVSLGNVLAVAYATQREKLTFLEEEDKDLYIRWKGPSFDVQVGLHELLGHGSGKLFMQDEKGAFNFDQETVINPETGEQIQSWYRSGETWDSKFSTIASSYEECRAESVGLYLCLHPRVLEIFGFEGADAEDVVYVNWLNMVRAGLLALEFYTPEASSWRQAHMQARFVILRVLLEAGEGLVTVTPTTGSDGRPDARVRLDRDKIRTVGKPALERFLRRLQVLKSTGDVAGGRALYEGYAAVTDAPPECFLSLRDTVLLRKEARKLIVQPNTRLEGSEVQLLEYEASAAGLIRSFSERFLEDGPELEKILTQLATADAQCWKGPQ
Test: Inhibition of Capra hircus (goat) brain DPP-3 using Arg-Arg-4mbetaNA as substrate assessed as liberation of 4mbetaNA from substrate
Details: target entry is the homologue from another species

| inhibition | SMILES |
| --- | --- |
| 71% | CS(=O)(=O)c1ccc(C2=C(c3ccccc3)C(=O)OC2)cc1 |
| 96% | CC(=O)Nc1ccc(O)cc1 |
| 85% | O=C(O)Cc1ccccc1Nc1c(Cl)cccc1Cl |
